We go through four molecules from US20260034044A1, “A PRESERVATIVE COMPOSITION” (AnalytiCon Discovery - Zweigniederlassung der BRAIN Biotech …, priority 2022, published 2026).

Holding throughout (experiment): Antimicrobial activity (MIC)
Assay type in all cases: cell-based

Test [1] has as its system Yarrowia lipolytica DSM 70561. The settings on record: DSM70561, potato dextrose broth pH 3.8, visual evaluation, read-out: Minimal Inhibitory Concentration (MIC).
Test [2] has as its system Alicyclobacillus acidoterrestris DSM 2498. The settings on record: DSM2498, potato dextrose broth pH 3.8, visual evaluation, read-out: Minimal Inhibitory Concentration (MIC).
The subject of test [3] is Gluconacetobacter liquefaciens DSM 5603. The note with it: DSM5603, potato dextrose broth pH 3.8, visual evaluation, read-out: Minimal Inhibitory Concentration (MIC).
Test [4] relates to Listeria monocytogenes DSM 20600. The settings on record: DSM20600, potato dextrose broth pH 3.8, visual evaluation, read-out: Minimal Inhibitory Concentration (MIC).
Test [5] deals with Salmonella enterica ssp. enterica Ser. typhimurium DSM 17058. The settings on record: potato dextrose broth pH 3.8, visual evaluation, read-out: Minimal Inhibitory Concentration (MIC).
The test system of test [6] is Pseudomonas aeruginosa DSM 1117. The settings on record: DSM1117, potato dextrose broth pH 3.8, visual evaluation, read-out: Minimal Inhibitory Concentration (MIC).
Test [7] concerns Cladosporium cladosporioides DSM19653. The settings on record: potato dextrose broth pH 3.8, visual evaluation, read-out: Minimal Inhibitory Concentration (MIC).
Test [8] deals with Leuconostoc lactis DSM 20202. The settings on record: DSM20202, potato dextrose broth pH 3.8, visual evaluation, read-out: Minimal Inhibitory Concentration (MIC).
In test [9] the test system is Streptococcus mutans DSM 20523. The note with it: DSM20523, potato dextrose broth pH 3.8, visual evaluation, read-out: Minimal Inhibitory Concentration (MIC).
The subject of test [10] is Phanerochaete chrysosporium DSM 1556. The settings on record: Phanerodontia chrysosporium, DSM1556, potato dextrose broth pH 3.8, visual evaluation, read-out: Minimal Inhibitory Concentration (MIC).
Test [11] deals with Alternaria alternata DSM 12633. The settings on record: DSM12633, potato dextrose broth pH 3.8, visual evaluation, read-out: Minimal Inhibitory Concentration (MIC).
The test system of test [12] is Pseudomonas fluorescens DSM50337. The settings on record: potato dextrose broth pH 3.8, visual evaluation, read-out: Minimal Inhibitory Concentration (MIC).
Test [13] concerns Pasteurella multocida ssp. multocida DSM 16031. The settings on record: DSM16031, potato dextrose broth pH 3.8, visual evaluation, read-out: Minimal Inhibitory Concentration (MIC).
Test [14] deals with Lactobacillus paracasei ssp. paracasei DSM 46331. The settings on record: Lacticaseibacillus paracasei, DSM46331, potato dextrose broth pH 3.8, visual evaluation, read-out: Minimal Inhibitory Concentration (MIC).
Test [15] deals with Actinomyces viscosus DSM43798. The settings on record: potato dextrose broth pH 3.8, visual evaluation, read-out: Minimal Inhibitory Concentration (MIC).

In brackets after ≈: the same amount, converted by molar mass.

Consider `C[C@H]1CC[C@@]2(OC1)O[C@H]1CC3C4CC[C@H]5C[C@@H](O[C@@H]6O[C@H](CO)[C@H](O[C@@H]7O[C@H](CO)[C@@H](O)[C@H](O[C@@H]8OC[C@@H](O)[C@H](O)[C@H]8O)[C@H]7O[C@@H]7O[C@H](CO)[C@@H](O)[C@H](O)[C@H]7O)[C@H](O)[C@H]6O)[C@H](O)C[C@]5(C)C4=CC(=O)[C@]3(C)[C@H]1[C@@H]2C` (stereo partly drawn) [A], for which the MIC is over 80 µg/mL in [1]; 40 µg/mL (≈ 37.6 µM) in test [2]; 140 µg/mL (≈ 132 µM) in test [3]; over 80 µg/mL in test [4]; over 80 µg/mL in test [5]; over 80 µg/mL in test [6]. Further, the MIC in [7] is over 80 µg/mL; in test [8], 80 µg/mL (≈ 75.2 µM); in test [9], over 80 µg/mL; in test [10], over 80 µg/mL; in [11], over 80 µg/mL; in test [12], over 80 µg/mL. Further, the MIC in test [13], in test [14] and in test [15] was over 80 µg/mL throughout.
Take `C[C@@H]1CC[C@@]2(OC1)O[C@H]1CC3C4CC=C5CC(O[C@@H]6O[C@H](CO)[C@@H](O[C@@H]7O[C@@H](C)[C@H](O[C@@H]8O[C@@H](C)[C@H](O)[C@@H](O)[C@H]8O)[C@@H](O)[C@H]7O)[C@H](O)[C@H]6O[C@@H]6O[C@@H](C)[C@H](O)[C@@H](O)[C@H]6O)CC[C@]5(C)C4CC[C@]3(C)[C@@]1(O)[C@@H]2C` (stereo partly drawn) [B]: the MIC in test [1] was over 80 µg/mL; in test [2] it was 140 µg/mL (≈ 136 µM); in test [3] it was 40 µg/mL (≈ 38.8 µM); in test [4] it was over 80 µg/mL; in test [5] it was over 80 µg/mL; in test [6], over 80 µg/mL. Further, the MIC in test [7], in [8], in test [9], in test [10], in test [11] and in test [12] was over 80 µg/mL each time. In addition, the MIC in test [13], in test [14] and in test [15] was over 80 µg/mL throughout.
For `CC1CC[C@@]2(OC1)O[C@H]1CC3C4CC=C5C[C@@H](O[C@@H]6O[C@H](CO)[C@@H](O[C@@H]7O[C@@H](C)[C@H](O)[C@@H](O)[C@H]7O)[C@H](O)[C@H]6O[C@@H]6O[C@@H](C)[C@H](O)[C@@H](O)[C@H]6O)CC[C@]5(C)C4CC[C@]3(C)[C@@]1(O)[C@@H]2C` (stereo partly drawn) [C], the MIC was over 80 µg/mL in test [1]; 80 µg/mL (≈ 90.4 µM) in [2]; 40 µg/mL (≈ 45.2 µM) in test [3]; over 80 µg/mL in test [4]; over 80 µg/mL in test [5]; over 80 µg/mL in test [6]. For the same molecule, the MIC in test [7], in test [8], in test [9], in test [10], in test [11] and in test [12] was over 80 µg/mL each time. In addition, the MIC in test [13], in [14] and in test [15] was over 80 µg/mL each time.
Regarding `C[C@H]1CC[C@@]2(OC1)O[C@H]1CC3C4CC[C@H]5C[C@@H](O[C@@H]6O[C@H](CO)[C@H](O[C@@H]7O[C@H](CO)[C@@H](O)[C@H](O)[C@H]7O[C@@H]7O[C@H](CO)[C@@H](O)[C@H](O)[C@H]7O)[C@H](O)[C@H]6O)[C@H](O)C[C@]5(C)C4=CC(=O)[C@]3(C)[C@H]1[C@@H]2C` (stereo partly drawn) [D], the MIC in [1] is over 80 µg/mL; in test [2], 40 µg/mL (≈ 43 µM); in test [3], 140 µg/mL (≈ 150 µM); in [4], over 80 µg/mL; in test [5], over 80 µg/mL; in [6], over 80 µg/mL. For the same molecule, the MIC was over 80 µg/mL in [7]; 80 µg/mL (≈ 85.9 µM) in test [8]; over 80 µg/mL in [9]; over 80 µg/mL in [10]; over 80 µg/mL in test [11]; over 80 µg/mL in test [12]. The MIC in [13], in [14] and in test [15] was over 80 µg/mL in each case.
